Assay: xn = mol fraction of the nth substance listed

CC(Cl)(Cl)Cl + CC1CCCO1
298.15 K, 101.33 kPa
Settings | viscosity [mPa·s]
x1 = 0.099 | 0.5033
x1 = 0.2 | 0.5324
x1 = 0.299 | 0.5617
x1 = 0.398 | 0.5917
x1 = 0.5 | 0.6234
x1 = 0.6 | 0.655
x1 = 0.7 | 0.6873
x1 = 0.8 | 0.7209
x1 = 0.869 | 0.7447

Cc1ccc(O)cc1C + CC12CCC(CC1=O)C2(C)C
101.33 kPa, x1 = 0.7
Settings | viscosity [mPa·s]
293.15 K | 25.37
298.15 K | 18.86
303.15 K | 14.61
308.15 K | 11.42
313.15 K | 9.026
318.15 K | 7.494
323.15 K | 6.189

CC(Cl)(Cl)Cl + CC#N
303.15 K, 101.32 kPa
Settings | viscosity [mPa·s]
x2 = 0.1263 | 0.6581
x2 = 0.2051 | 0.6229
x2 = 0.2652 | 0.5971
x2 = 0.3855 | 0.5476
x2 = 0.478 | 0.5114
x2 = 0.6358 | 0.4505
x2 = 0.6802 | 0.4339
x2 = 0.7999 | 0.3906
x2 = 0.8673 | 0.3675
x2 = 0.9074 | 0.3539

O=CO + CC#N
303.15 K, 101 kPa
Settings | viscosity [mPa·s]
x1 = 0.0912 | 0.386
x1 = 0.1824 | 0.422
x1 = 0.2772 | 0.468
x1 = 0.3728 | 0.523
x1 = 0.4721 | 0.597
x1 = 0.5735 | 0.691
x1 = 0.6751 | 0.801
x1 = 0.7806 | 0.962
x1 = 0.8891 | 1.17

CC(Cl)(Cl)Cl + CC(=O)CC(C)C
298.15 K, 101.33 kPa
Settings | viscosity [mPa·s]
x2 = 0.0803 | 0.739
x2 = 0.1769 | 0.694
x2 = 0.2653 | 0.665
x2 = 0.3765 | 0.634
x2 = 0.4692 | 0.614
x2 = 0.5907 | 0.594
x2 = 0.7245 | 0.573
x2 = 0.8536 | 0.558

CCCC[N+](CCCC)(CCCC)CCCC.[OH-] + CC(=O)N(C)C
viscosity [mPa·s], 101 kPa
Settings | 298.15 K | 303.15 K | 308.15 K | 313.15 K
x1 = 0.0124 | 1.15 | 1.05 | 0.97 | 0.9
x1 = 0.0388 | 1.63 | 1.47 | 1.38 | 1.23
x1 = 0.0678 | 2.15 | 1.97 | 1.81 | 1.64
x1 = 0.0996 | 2.67 | 2.47 | 2.25 | 2.06
x1 = 0.1348 | 3.16 | 2.96 | 2.7 | 2.49
x1 = 0.1538 | 3.44 | 3.22 | 2.96 | 2.71
x1 = 0.1951 | 3.94 | 3.74 | 3.48 | 3.21
x1 = 0.2666 | 4.74 | 4.48 | 4.21 | 3.94
x1 = 0.3529 | 5.43 | 5.15 | 4.9 | 4.62
x1 = 0.4589 | 6.02 | 5.73 | 5.48 | 5.21
x1 = 0.5925 | 6.45 | 6.2 | 5.97 | 5.73
x1 = 0.7026 | 6.63 | 6.37 | 6.14 | 5.93
x1 = 0.8358 | 6.66 | 6.42 | 6.19 | 5.99

O=CO + CC(=O)O
viscosity [mPa·s], 101 kPa
Settings | 298.15 K | 323.15 K
x1 = 0.0603 | 1.119 | 0.7729
x1 = 0.1 | 1.286 | –
x1 = 0.2 | 1.391 | –
x1 = 0.2363 | 1.278 | 0.8526
x1 = 0.3 | 1.463 | –
x1 = 0.4 | 1.506 | –
x1 = 0.4165 | 1.425 | 0.9226
x1 = 0.5 | 1.564 | –
x1 = 0.6 | 1.587 | –
x1 = 0.613 | 1.52 | 0.9694
x1 = 0.7 | 1.607 | –
x1 = 0.7416 | 1.565 | 0.9847
x1 = 0.8 | 1.607 | –
x1 = 0.8864 | 1.565 | 0.9893
x1 = 0.9 | 1.582 | –
x1 = 0.9578 | 1.56 | 0.9775
